Measurements taken from patent US20260022143A1, “Cyclic Peptide Inhibitors of IL-23” (JANSSEN PHARMACEUTICA NV, priority 2022, published 2026).
Starred links: 1 amine or outer side, 2 acyl side, 3 side chain; linkers in the order of their positions; H or OH if unused. Positions of bridges follow the written chain, without caps; N, C: chain ends. Non-standard residues stand in square brackets, D forms with d. Residues, ends and D or L forms follow the SMILES beside them. *: point of attachment. X64 = C[N+]1(C)CCN(c2ccc(C[C@H](N[*:1])C(=O)[*:2])cc2)CC1; Me3N+(CH2)2O(CH2)2O(CH2)2CO = C[N+](C)(C)CCOCCOCCC(=O)*; Trp(7-Me) = Cc1cccc2c(C[C@H](N)C(=O)O)c[nH]c12; CH2CH2OCH2CH2NMe3+ = C[N+](C)(C)CCOCC*; X47 = C[N+]1(C)CC[N+]2(CCN(CC*)CC2)CC1; X60 = CCCCCCCC[N+](C)(C)CCc1cn(CC*)nn1; 2Nal = N[C@@H](Cc1ccc2ccccc2c1)C(=O)O; AEF = NCCOc1ccc(C[C@H](N)C(=O)O)cc1; X50 = CCCC[N+](CCCC)(CCCC)CCOCCOCC*; X26 = C[N+](C)(C)CCCCc1cn(CC*)nn1; 3Pal = N[C@@H](Cc1cccnc1)C(=O)O; Lys(Me) = CNCCCC[C@H](N)C(=O)O; Pen = CC(C)(S)[C@H](N)C(=O)O; X49 = O=C(CCCCCCCC*)N1CCCCC1; X52 = C[N+](C)(C)CCOCCNCC*; Thp = NC1(C(=O)O)CCOCC1; Sar = CNCC(=O)O

Columns and labels:
[1] = biological target: T1, IL-23R (Homo sapiens, UniProt Q5VWK5); test: IL23R Reporter Assay; type: cell-based; settings: HEK293 cells containing IL-23R, IL-12RP1 and STAT-inducible firefly luciferase reporter; 10 ng/mL IL-23 (EC90); 5 h at 37° C.; read-out: IL23R Reporter Assay
T1 construct: host or cells: HEK293
T1 sequence (Q5VWK5 24-629): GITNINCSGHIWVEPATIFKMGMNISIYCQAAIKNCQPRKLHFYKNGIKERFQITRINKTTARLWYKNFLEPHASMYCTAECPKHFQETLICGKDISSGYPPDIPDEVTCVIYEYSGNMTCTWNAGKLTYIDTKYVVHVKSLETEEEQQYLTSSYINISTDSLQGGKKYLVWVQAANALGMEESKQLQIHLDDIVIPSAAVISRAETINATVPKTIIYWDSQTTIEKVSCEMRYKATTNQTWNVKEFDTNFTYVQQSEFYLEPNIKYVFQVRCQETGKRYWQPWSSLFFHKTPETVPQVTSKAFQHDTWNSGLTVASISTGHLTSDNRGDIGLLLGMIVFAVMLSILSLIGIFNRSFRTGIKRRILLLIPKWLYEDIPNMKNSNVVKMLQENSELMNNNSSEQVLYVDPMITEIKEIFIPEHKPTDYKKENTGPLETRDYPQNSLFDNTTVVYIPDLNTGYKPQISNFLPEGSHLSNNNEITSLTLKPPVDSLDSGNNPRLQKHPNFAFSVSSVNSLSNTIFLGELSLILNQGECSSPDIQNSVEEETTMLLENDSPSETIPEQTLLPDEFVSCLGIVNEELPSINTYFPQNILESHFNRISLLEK

[2] = Exposed Polar Surface Area (EPSA); type: physicochemical; settings: SFC on Chirex 3014 column; sample 1 mM DMSO stock; read-out: EPSA
Procedure, shortened: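 EPSA, in Å^2, is read from SFC retention time through a linear relationship established with eight calibration standards. Separation uses a Chirex 3014 stationary phase, 35 °C, 14 MPa back pressure, and a 5–60% methanol/ammonium formate modifier gradient in CO2.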

SMILES | IC50 [1] [nM] | EPSA [2] [A^2]
CC(=O)N(C)CCCC[C@@H]1NC(=O)[C@H](Cc2c[nH]c3c(C)cccc23)NC(=O)[C@H]([C@@H](C)O)NC(=O)[C@H](CC(=O)N(C)C)NC(=O)[C@@H](NC(=O)CCOCCOCC[N+](C)(C)C)C(C)(C)SSC(C)(C)[C@@H](C(=O)N[C@@H](Cc2ccc(OCCNCCOCC[N+](C)(C)C)cc2)C(=O)N[C@@H](Cc2ccc3ccccc3c2)C(=O)NC2(C(=O)N[C@@H](CCCCN(C)C(C)=O)C(=O)N[C@@H](CC(N)=O)C(=O)N[C@@H](Cc3cccnc3)C(=O)N(C)CC(=O)N(C)C)CCOCC2)NC1=O [compound 238, cPEG3aCO-Pen(3)-N(N(Me)2)-T-7MeW-K(NMeAc)-Pen(3)-AEF(PEG2a)-2Nal-THP-K(NMeAc)-N-3Pya-Sar-CON(Me)2] ({Me3N+(CH2)2O(CH2)2O(CH2)2CO}-[Pen]D(NMe2)T[Trp(7-Me)][Lys(Me)](Ac)[Pen]Y(X52)[2Nal][Thp][Lys(Me)](Ac)N[3Pal][Sar]-NMe2; disulfide 1-6) | 3.5 | 145
CC(=O)N(C)CCCC[C@@H]1NC(=O)[C@H](Cc2c[nH]c3c(C)cccc23)NC(=O)[C@H]([C@@H](C)O)NC(=O)[C@H](CC(=O)N(C)C)NC(=O)[C@@H](NC(=O)CCOCCOCC[N+](C)(C)C)C(C)(C)SSC(C)(C)[C@@H](C(=O)N[C@@H](Cc2ccc(OCCCCCCCCC(=O)N3CCCCC3)cc2)C(=O)N[C@@H](Cc2ccc3ccccc3c2)C(=O)NC2(C(=O)N[C@@H](CCCCN(C)C(C)=O)C(=O)N[C@@H](CC(N)=O)C(=O)N[C@@H](Cc3cccnc3)C(=O)N(C)CC(=O)N(C)C)CCOCC2)NC1=O [compound 242, cPEG3aCO-Pen(3)-N(N(Me)2)-T-7MeW-K(NMeAc)-Pen(3)-YC8COPip-2Nal-THP-K(NMeAc)-N-3Pya-Sar-CON(Me)2] ({Me3N+(CH2)2O(CH2)2O(CH2)2CO}-[Pen]D(NMe2)T[Trp(7-Me)][Lys(Me)](Ac)[Pen]Y(X49)[2Nal][Thp][Lys(Me)](Ac)N[3Pal][Sar]-NMe2; disulfide 1-6) | 25 | 145
CC(=O)N(C)CCCC[C@H](NC(=O)C1(NC(=O)[C@H](Cc2ccc3ccccc3c2)NC(=O)[C@H](Cc2ccc(OCCN)cc2)NC(=O)[C@H]2NC(=O)[C@H](COCCOCC[N+](C)(C)C)NC(=O)[C@H](Cc3c[nH]c4c(C)cccc34)NC(=O)[C@H]([C@@H](C)O)NC(=O)[C@H](CC(=O)N(C)C)NC(=O)[C@@H](NC(=O)CCOCCOCC[N+](C)(C)C)C(C)(C)SSC2(C)C)CCOCC1)C(=O)N[C@@H](CC(N)=O)C(=O)N[C@@H](Cc1cccnc1)C(=O)N(C)CC(=O)N(C)C [compound 245, cPEG3aCO-Pen(3)-N(N(Me)2)-T-7MeW-APEG2Ser-Pen(3)-AEF-2Nal-THP-K(NMeAc)-N-3Pya-Sar-CON(Me)2] ({Me3N+(CH2)2O(CH2)2O(CH2)2CO}-[Pen]D(NMe2)T[Trp(7-Me)]S(CH2CH2OCH2CH2NMe3+)[Pen][AEF][2Nal][Thp][Lys(Me)](Ac)N[3Pal][Sar]-NMe2; disulfide 1-6) | 42 | 148
CCCCCCCC[N+](C)(C)CCc1cn(CCOc2ccc(C[C@H](NC(=O)[C@H]3NC(=O)[C@H](CCCCNC(C)=O)NC(=O)[C@H](Cc4c[nH]c5c(C)cccc45)NC(=O)[C@H]([C@@H](C)O)NC(=O)[C@H](CC(N)=O)NC(=O)[C@@H](NC(C)=O)C(C)(C)SSC3(C)C)C(=O)N[C@@H](Cc3ccc4ccccc4c3)C(=O)NC3(C(=O)N[C@@H](CCCCNC(C)=O)C(=O)N[C@@H](CC(N)=O)C(=O)N[C@@H](Cc4cccnc4)C(=O)N(C)CC(N)=O)CCOCC3)cc2)nn1 [compound 250] (Ac-[Pen]NT[Trp(7-Me)]K(Ac)[Pen]Y(X60)[2Nal][Thp]K(Ac)N[3Pal][Sar]-NH2; disulfide 1-6 (inferred)) | 6.9 | 146
CC(=O)NCCCC[C@@H]1NC(=O)[C@H](Cc2c[nH]c3c(C)cccc23)NC(=O)[C@H]([C@@H](C)O)NC(=O)[C@H](CC(N)=O)NC(=O)[C@@H](NC(C)=O)C(C)(C)SSC(C)(C)[C@@H](C(=O)N[C@@H](Cn2cc(CC[N+](C)(C)C)nn2)C(=O)N[C@@H](Cc2ccc3ccccc3c2)C(=O)NC2(C(=O)N[C@@H](CCCCNC(C)=O)C(=O)N[C@@H](CC(N)=O)C(=O)N[C@@H](Cc3cccnc3)C(=O)N(C)CC(N)=O)CCOCC2)NC1=O [compound 253] | 40 | 146
CC(=O)NCCCC[C@@H]1NC(=O)[C@H](Cc2c[nH]c3c(C)cccc23)NC(=O)[C@H]([C@@H](C)O)NC(=O)[C@H](CC(N)=O)NC(=O)[C@@H](NC(C)=O)C(C)(C)SSC(C)(C)[C@@H](C(=O)N[C@@H](Cc2ccc(OCCn3cc(CCCC[N+](C)(C)C)nn3)cc2)C(=O)N[C@@H](Cc2ccc3ccccc3c2)C(=O)NC2(C(=O)N[C@@H](CCCCNC(C)=O)C(=O)N[C@@H](CC(N)=O)C(=O)N[C@@H](Cc3cccnc3)C(=O)N(C)CC(N)=O)CCOCC2)NC1=O [compound 258] (Ac-[Pen]NT[Trp(7-Me)]K(Ac)[Pen]Y(X26)[2Nal][Thp]K(Ac)N[3Pal][Sar]-NH2; disulfide 1-6 (inferred)) | 6.9 | 151
CCCC[N+](CCCC)(CCCC)CCOCCOCCOc1ccc(C[C@H](NC(=O)[C@H]2NC(=O)[C@H](CCCCN(C)C(C)=O)NC(=O)[C@H](Cc3c[nH]c4c(C)cccc34)NC(=O)[C@H]([C@@H](C)O)NC(=O)[C@H](CC(=O)N(C)C)NC(=O)[C@@H](NC(=O)CCOCCOCC[N+](C)(C)C)C(C)(C)SSC2(C)C)C(=O)N[C@@H](Cc2ccc3ccccc3c2)C(=O)NC2(C(=O)N[C@@H](CCCCN(C)C(C)=O)C(=O)N[C@@H](CC(N)=O)C(=O)N[C@@H](Cc3cccnc3)C(=O)N(C)CC(=O)N(C)C)CCOCC2)cc1 [compound 263, cPEG3aCO-Pen(3)-N(N(Me)2)-T-7MeW-K(NMeAc)-Pen(3)-TBAPEG3F-2Nal-THP-K(NMeAc)-N-3Pya-Sar-CON(Me)2] ({Me3N+(CH2)2O(CH2)2O(CH2)2CO}-[Pen]D(NMe2)T[Trp(7-Me)][Lys(Me)](Ac)[Pen]Y(X50)[2Nal][Thp][Lys(Me)](Ac)N[3Pal][Sar]-NMe2; disulfide 1-6 (inferred)) | 5 | 140
CC(=O)N(C)CCCC[C@@H]1NC(=O)[C@H](Cc2c[nH]c3c(C)cccc23)NC(=O)[C@H]([C@@H](C)O)NC(=O)[C@H](CC(=O)N(C)C)NC(=O)[C@@H](NC(=O)CCOCCOCC[N+](C)(C)C)C(C)(C)SSC(C)(C)[C@@H](C(=O)NC(Cc2ccc(OCCN(CCOCC[N+](C)(C)C)CCOCC[N+](C)(C)C)cc2)C(=O)N[C@@H](Cc2ccc3ccccc3c2)C(=O)NC2(C(=O)N[C@@H](CCCCN(C)C(C)=O)C(=O)N[C@@H](CC(N)=O)C(=O)N[C@@H](Cc3cccnc3)C(=O)N(C)CC(=O)N(C)C)CCOCC2)NC1=O (stereo partly drawn) [compound 265, cPEG3aCO-Pen(3)-N(N(Me)2)-T-7MeW-K(NMeAc)-Pen(3)-AEF(BisPEG2a)(RS)-2Nal-THP-K(NMeAc)-N-3Pya-Sar-CON(Me)2] | 6.4 | 159
CC(=O)N(C)CCCC[C@@H]1NC(=O)[C@H](Cc2c[nH]c3c(C)cccc23)NC(=O)[C@H]([C@@H](C)O)NC(=O)[C@H](CC(=O)N(C)C)NC(=O)[C@@H](NC(=O)CCOCCOCC[N+](C)(C)C)C(C)(C)SSC(C)(C)[C@@H](C(=O)N[C@@H](Cc2ccc(OCCN3CC[N+]4(CC3)CC[N+](C)(C)CC4)cc2)C(=O)N[C@@H](Cc2ccc3ccccc3c2)C(=O)NC2(C(=O)N[C@@H](CCCCN(C)C(C)=O)C(=O)N[C@@H](CC(N)=O)C(=O)N[C@@H](Cc3cccnc3)C(=O)N(C)CC(=O)N(C)C)CCOCC2)NC1=O [compound 269, cPEG3aCO-Pen(3)-N(N(Me)2)-T-7MeW-K(NMeAc)-Pen(3)-DMTASF-2Nal-THP-K(NMeAc)-N-3Pya-Sar-CON(Me)2] ({Me3N+(CH2)2O(CH2)2O(CH2)2CO}-[Pen]D(NMe2)T[Trp(7-Me)][Lys(Me)](Ac)[Pen]Y(X47)[2Nal][Thp][Lys(Me)](Ac)N[3Pal][Sar]-NMe2; disulfide 1-6) | 1.4 | 167
CC(=O)N(C)CCCC[C@@H]1NC(=O)[C@H](Cc2c[nH]c3c(C)cccc23)NC(=O)[C@H]([C@@H](C)O)NC(=O)[C@H](CC(=O)N(C)C)NC(=O)[C@@H](NC(=O)CCOCCOCC[N+](C)(C)C)C(C)(C)SSC(C)(C)[C@@H](C(=O)N[C@@H](Cc2ccc(N3CC[N+](C)(C)CC3)cc2)C(=O)N[C@@H](Cc2ccc3ccccc3c2)C(=O)NC2(C(=O)N[C@@H](CCCCN(C)C(C)=O)C(=O)N[C@@H](CC(N)=O)C(=O)N[C@@H](Cc3cccnc3)C(=O)N(C)CC(=O)N(C)C)CCOCC2)NC1=O [compound 273, cPEG3aCO-Pen(3)-N(N(Me)2)-T-7MeW-K(NMeAc)-Pen(3)-PiperazinequatF-2Nal-THP-K(NMeAc)-N-3Pya-Sar-CON(Me)2] ({Me3N+(CH2)2O(CH2)2O(CH2)2CO}-[Pen]D(NMe2)T[Trp(7-Me)][Lys(Me)](Ac)[Pen][X64][2Nal][Thp][Lys(Me)](Ac)N[3Pal][Sar]-NMe2; disulfide 1-6) | 2.6 | 157
